Values quoted from earlier work in patent US11491120B2, “Pharmacological prophylactics against stress-induced affective disorders in females” (The Trustees of Columbia University in the City of New York, priority 2017, dated 2022).

Assays:
[1] = following ketamine infusion; cited from earlier work
NMDAR = details: cited from earlier work

Structure (SMILES) | Share of the original ketamine dose found as metabolite in the brain [1] [%] | Antagonism of the NMDAR, relative strength (NMDAR)
N[C@@]1(c2ccccc2Cl)CCC[C@@H](O)C1=O [(2R,6R;2S,6S)-HNK, (2R,6R;2S,6S)-hydroxynorketamine] | 15 | –
CN[C@]1(c2ccccc2Cl)CCCCC1=O [(S)-ketamine] | – | four-fold stronger antagonist
